Test results reported in patent publication US6610473B1 (priority 1999, dated 2003).

Target: HPV16-E6 protein (Human papillomavirus type 16, UniProt P03126)
Sequence (P03126 whole entry): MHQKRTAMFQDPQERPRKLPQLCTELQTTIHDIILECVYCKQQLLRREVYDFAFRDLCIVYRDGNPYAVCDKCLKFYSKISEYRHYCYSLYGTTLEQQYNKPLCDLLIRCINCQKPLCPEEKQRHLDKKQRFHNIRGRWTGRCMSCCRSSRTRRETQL

NH2-LFDIFRLCAQ PVLVHGHTRV-COOH [E61-20.pep]
clones obtained in another screening assay for HPV-E6 protein-binding peptides: obtained

NH2-LVGRVRIGVS VFIRGGRLL-COOH [E61-19.pep]
clones obtained in another screening assay for HPV-E6 protein-binding peptides: obtained
